Patent publication US20020120102A1, “Use of dendroaspin as a scaffold for non-dendroaspin domains” (priority 2000, published 2002)
Ends that are not written are not given here.

Test system: washed platelets
Experiment: ADP-induced platelet aggregation (light transmission)
Type: cell-based
Details: 10 μM ADP, 1.67 mg/ml fibrinogen, washed human platelets
Description: Measurement of platelet aggregation—Platelet aggregation was measured by the increase in light transmission as described previously (Lu et al. (1993), supra; Lu et al. (1994) Biochem. J. 304, 929-936). Briefly, platelet rich plasma (PRP) was prepared from citrated human blood, obtained from healthy individuals, by centrifugation at 200×g for 15 min. Washed platelets were prepared from PRP and resuspended in adhesion/aggregation buffer (145 mM NaCl, 5 mM KCl, 1 mM MgCl2, 2 mM CaCl2, 10 mM glucose, 3.5 mg/ml BSA and 10 mM HEPES, pH 7.35) and adjusted to a count of 3×10^8/ml. Platelet aggregation (320 μl incubations) was induced with 10 μM ADP in the presence of 1.67 mg/ml fibrinogen and measured using a Payton Dual-Aggregometer linked to a chart recorder.

KGD-dendroaspin: dendroaspin scaffold in which the native RGD motif is replaced by KGD; recombinant, expressed in E. coli (RICYNHLGTKPPTTETCQEDSCYKNIWTFDNIIRRGCGCFTPKGDMPGPYCCESDKCNL; ends and bridges not checked; cysteine pairing not given here)
inhibition of ADP-induced platelet aggregation: potent inhibition
